Results: patent publication US12636311B2, “Topically administered strontium-containing complexes for treating pain, pruritis and inflammation” (Galleon Labs LLC, priority 2012, dated 2026)

What was measured:
[1] = system: synchronous neurotransmitter release in response to TCN activation; settings: strontium substitutes for calcium; cited from earlier work
[2] = system: TCN activation by 70% glycolic acid peel; settings: strontium mixed with 70% glycolic acid, pH 0.6; cited from earlier work
[3] = system: brachioradial pruritus; test: Brachioradial pruritus, itch severity reported by subject; type: in vivo, human; settings: topical treatment, moderate to severe itch
From the text: A person suffered from brachioradial pruritus for over 20 years, a neuropathic condition that is believed to be caused by compression of cervical nerves that innervate the mid-back and arms. They experienced moderate to severe itching typically most intense on their arms, neck and shoulders.
During the last several years, the subject treated their condition with either strontium alone (4% or 6% elemental strontium) and with a spray formulation of strontium+ Gallic Acid+ NAC. […] Reapplication 3 or 4 times over a 10-20 minute period increased that anti-itch benefit and reduced the itching by about 50%. […] If itching remained, a second spray eliminated the remaining itching.
Subsequent blinded tests were performed in which either 4% strontium only or 6% strontium only was directly compared to 4% strontium+ Gallic Acid+ NAC. Since the subject's brachioradial pruritus typically produced itching of approximately equal intensity on both arms in a bilaterally-symmetrical pattern, strontium alone was applied to one arm and strontium+ Gallic Acid+ NAC was applied to the contralateral arm in a double-blinded manner and itch severity was reported by the subject.

Row | Compound | Reduction of amplitude of synchronous neurotransmitter release [1] | Suppression of burning pain and stinging [2] | Anti-itch benefit (in words) [3]
1 | [Sr+2] [strontium] | more than 90% | ≥ 80% | –
2 | CN(C)CCOC(c1ccccc1)c1ccccc1 [diphenhydramine] | – | – | limited benefit only when the itching was mild
3 | C[C@]12CCC(=O)C=C1CC[C@@H]1[C@@H]2[C@@H](O)C[C@@]2(C)[C@H]1CC[C@]2(O)C(=O)CO [hydrocortisone] | – | – | no anti-itch benefit
